Source: patent US20220055989A1, “CONDENSED PYRROLES AS NOVEL BROMODOMAIN INHIBITORS” (ALBERT LUDWING UNIVERSITÄT FREIBURG, priority 2018, published 2022)

Assays:
[1] = molecular target: T1, BRD4(1) (Homo sapiens, UniProt O60885); assay: Bromodomain assay % Ctrl determination BRD4(1); conditions: lower numbers indicate a stronger binding
T1 construct: BRD4-BD1 was expressed and purified as described previously; made in house
Procedure: (§1) Compounds that bind the bromodomain prevent its binding to the immobilized ligand thus reducing the amount of protein captured. […] Hits are identified by measuring the amount of bromodomain captured in test versus control samples. Bromodomain assays for % Ctrl determination: T7 phage strains displaying bromodomains were grown in parallel in 24-well blocks in an E. coli host derived from the BL21 strain. E. coli were grown to log-phase and infected with T7 phage from a frozen stock (multiplicity of infection=0.4) and incubated with shaking at 32° C. until lysis (90-150 minutes). The lysates were centrifuged (5,000×g) and filtered (0.2 μm) to remove cell debris. […] The liganded beads were blocked with excess biotin and washed with blocking buffer (SeaBlock (Pierce), 1% BSA, 0.05% Tween 20, 1 mM DTT) to remove unbound ligand and to reduce non-specific phage binding. […] Test compounds were prepared as 1000× stocks in 100% DMSO and subsequently diluted 1:25 in monoethylene glycol (MEG). The compounds were then diluted directly into the assays such that the final concentrations of DMSO and MEG were 0.1% and 2.4%, respectively. All reactions were performed in polypropylene 384-well plates in a final volume of 0.02 ml. […] The bromodomain concentration in the eluates was measured by qPCR. […]

[2] = molecular target: T2, BRDT(2) (Homo sapiens, UniProt Q58F21); assay: Bromodomain assay % Ctrl determination BRDT(2); conditions: lower numbers indicate a stronger binding
T2 construct: T7 phage strains displaying bromodomains were grown; host or cells: T7 phage in E. coli derived from BL21
Procedure: as §1

[3] = molecular target: T3, BRD7 (Homo sapiens, UniProt Q9NPI1); assay: Bromodomain assay % Ctrl determination BRD7; conditions: lower numbers indicate a stronger binding
T3 construct: T7 phage strains displaying bromodomains were grown; host or cells: T7 phage in E. coli derived from BL21
T3 sequence (Q9NPI1 131-235 limits assumed): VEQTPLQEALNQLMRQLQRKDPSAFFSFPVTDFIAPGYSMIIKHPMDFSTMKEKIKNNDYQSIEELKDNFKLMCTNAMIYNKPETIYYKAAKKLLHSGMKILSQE
Procedure: as §1

[4] = molecular target: T4, BRD9 (Homo sapiens, UniProt Q9H8M2); assay: Bromodomain assay % Ctrl determination BRD9; conditions: lower numbers indicate a stronger binding
T4 construct: T7 phage strains displaying bromodomains were grown; host or cells: T7 phage in E. coli derived from BL21
T4 sequence (Q9H8M2 136-240 limits assumed): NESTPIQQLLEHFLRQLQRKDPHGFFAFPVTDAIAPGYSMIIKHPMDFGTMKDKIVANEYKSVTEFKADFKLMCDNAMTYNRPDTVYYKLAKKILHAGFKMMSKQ
Procedure: as §1

[5] = system: HL-60 cells; assay: GI50 in a culture of HL-60 cells; assay type: cell-based; conditions: concentration required to reduce the population of a culture of HL-60 cells by 50%
[6] = molecular target: T5, PBRM1(2) (Homo sapiens, UniProt Q86U86); assay: Bromodomain assay % Ctrl determination PBRM1(2); conditions: lower numbers indicate a stronger binding
T5 construct: FALZ, PBRM1-BD2, BPRM1-BDS, TAF1-BD2, TAF1L-BD2; host or cells: T7 phage grown in E. coli host derived from BL21
Procedure: as §1

[7] = molecular target: T6, BRD2(2) (Homo sapiens, UniProt P25440); assay: Bromodomain assay % Ctrl determination BRD2(2); conditions: lower numbers indicate a stronger binding
T6 construct: T7 phage strains displaying bromodomains were grown in parallel; made in house; host or cells: T7 phage grown in an E. coli host derived from the BL21 strain
Procedure: as §1

[8] = molecular target: T7, ATAD2B (Homo sapiens, UniProt Q9ULI0); assay: Bromodomain assay % Ctrl determination ATAD2B; conditions: lower numbers indicate a stronger binding
T7 construct: T7 phage strains displaying bromodomains were grown in parallel; made in house; host or cells: T7 phage grown in an E. coli host derived from the BL21 strain
Procedure: as §1

[9] = molecular target: T8, CECR2 (Homo sapiens, UniProt Q9BXF3); assay: Bromodomain assay % Ctrl determination CECR2; conditions: lower numbers indicate a stronger binding
T8 construct: T7 phage strains displaying bromodomains were grown; host or cells: T7 phage in E. coli derived from BL21
Procedure: as §1

[10] = molecular target: T9, TAF1(2) (Homo sapiens, UniProt P21675); assay: BROMOscan Kd determination TAF1(2); assay type: binding
T9 construct: FALZ, PBRM1-BD2, BPRM1-BDS, TAF1-BD2, TAF1L-BD2; host or cells: T7 phage grown in E. coli host derived from BL21
Procedure: (§2) Bromodomain profiling was carried out on the basis of BROMOscan™. This platform accounted for the indirect determination of the dissociation constants between 19 bromodomains and the compound of formula (13), by binding competition against a reference immobilized ligand. Compounds that bind the bromodomain prevent its binding to the immobilized ligand thus reducing the amount of protein captured. […] Hits are identified by measuring the amount of bromodomain captured in test versus control samples. Bromodomain assays for Kd determination: T7 phage strains displaying bromodomains were grown in parallel in 24-well blocks in an E. coli host derived from the BL21 strain. E. coli were grown to log-phase and infected with T7 phage from a frozen stock (multiplicity of infection=0.4) and incubated with shaking at 32° C. until lysis (90-150 minutes). The lysates were centrifuged (5,000×g) and filtered (0.2 μm) to remove cell debris. […] Kds were determined using an 11-point 3-fold compound dilution series with one DMSO control point. […] The bromodomain concentration in the eluates was measured by qPCR. […] Most Kds were determined using a compound top concentration=10,000 nM. […] Binding Constants (Kds): Binding constants (Kds) were calculated with a standard dose-response curve using the Hill equation: The Hill Slope was set to −1. […]

[11] = molecular target: T10, CREBBP (Homo sapiens, UniProt Q92793); assay: BROMOscan Kd determination CREBBP; assay type: binding
T10 construct: T7 phage strains displaying bromodomains were grown; host or cells: T7 phage in E. coli derived from BL21
Procedure: as §2

[12] = molecular target: T11, TAF1L(2) (Homo sapiens, UniProt Q8IZX4); assay: BROMOscan Kd determination TAF1L(2); assay type: binding
T11 construct: FALZ, PBRM1-BD2, BPRM1-BDS, TAF1-BD2, TAF1L-BD2; host or cells: T7 phage grown in E. coli host derived from BL21
Procedure: as §2

[13] = molecular target: T12, SMARCA2 (Homo sapiens, UniProt P51531); assay: BROMOscan Kd determination SMARCA2; assay type: binding
T12 construct: T7 phage strains displaying bromodomains were grown in parallel; host or cells: T7 phage grown in E. coli host derived from BL21
Procedure: as §2

[14] = molecular target: T13, TRIM24(PHD, Bromo) (Homo sapiens, UniProt O15164); assay: BROMOscan Kd determination TRIM24(PHD, Bromo.); assay type: binding
T13 construct: T7 phage strains displaying bromodomains were grown in parallel; host or cells: T7 phage grown in E. coli host derived from BL21
Procedure: as §2

[15] = molecular target: T14, PBRM1(5) (Homo sapiens, UniProt Q86U86); assay: BROMOscan Kd determination PBRM1(5); assay type: binding
T14 construct: T7 phage strains displaying bromodomains were grown in parallel; host or cells: T7 phage grown in E. coli host derived from BL21
Procedure: as §2

T7 sequence (Q9ULI0 951-1066 limits assumed): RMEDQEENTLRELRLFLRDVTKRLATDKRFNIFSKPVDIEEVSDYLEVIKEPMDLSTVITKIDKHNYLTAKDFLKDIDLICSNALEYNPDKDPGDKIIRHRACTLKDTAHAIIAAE
T10 sequence (Q92793 1085-1192 limits assumed): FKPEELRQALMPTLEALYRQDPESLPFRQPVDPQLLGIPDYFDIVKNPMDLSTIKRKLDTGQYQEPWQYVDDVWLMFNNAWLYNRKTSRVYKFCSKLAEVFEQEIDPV
T14 sequence (Q86U86 653-763 limits assumed): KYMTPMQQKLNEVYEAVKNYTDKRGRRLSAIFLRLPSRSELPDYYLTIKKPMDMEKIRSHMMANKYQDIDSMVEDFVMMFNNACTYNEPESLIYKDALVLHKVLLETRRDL
T13 sequence (O15164 824-1006 limits assumed): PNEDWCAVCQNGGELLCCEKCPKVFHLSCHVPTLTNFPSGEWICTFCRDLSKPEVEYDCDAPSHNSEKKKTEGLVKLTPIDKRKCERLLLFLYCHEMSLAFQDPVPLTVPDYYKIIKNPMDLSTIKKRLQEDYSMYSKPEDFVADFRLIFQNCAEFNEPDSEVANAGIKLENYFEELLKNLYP
T8 sequence (Q9BXF3 434-538 limits assumed): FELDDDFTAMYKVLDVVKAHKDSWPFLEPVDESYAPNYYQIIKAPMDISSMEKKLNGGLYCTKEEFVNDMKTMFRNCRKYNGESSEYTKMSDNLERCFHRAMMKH
T12 sequence (P51531 1378-1506 limits assumed): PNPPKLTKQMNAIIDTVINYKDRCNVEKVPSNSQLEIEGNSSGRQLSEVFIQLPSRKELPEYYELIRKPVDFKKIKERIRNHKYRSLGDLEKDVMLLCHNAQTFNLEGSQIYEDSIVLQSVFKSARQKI
T5 sequence (Q86U86 177-287 limits assumed): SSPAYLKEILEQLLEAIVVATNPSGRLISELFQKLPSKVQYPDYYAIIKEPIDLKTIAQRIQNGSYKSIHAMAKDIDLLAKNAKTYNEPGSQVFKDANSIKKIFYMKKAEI
T11 sequence (Q8IZX4 1517-1626 limits assumed): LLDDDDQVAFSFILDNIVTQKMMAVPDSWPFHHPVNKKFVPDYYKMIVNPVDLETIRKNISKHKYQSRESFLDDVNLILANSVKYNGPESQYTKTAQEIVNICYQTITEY
T9 sequence (P21675 1519-1628 limits assumed): as the sequence (Q8IZX4 1517-1626 limits assumed) above, with M46V, V51M, I102V, I107L counted along it
T6 sequence (P25440 344-453 limits assumed): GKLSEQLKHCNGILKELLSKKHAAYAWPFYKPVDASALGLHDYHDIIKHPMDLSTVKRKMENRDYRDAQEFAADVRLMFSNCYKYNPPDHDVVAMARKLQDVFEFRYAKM

Row | SMILES | % Ctrl @ 10 000 nM BRD4(1) [1] | % Ctrl @ 10 000 nM BRDT(2) [2] | % Ctrl @ 10 000 nM BRD7 [3] | % Ctrl @ 10 000 nM BRD9 [4] | GI50HL60 [5] | % Ctrl @ 10 000 nM PBRM1(2) [6] | % Ctrl @ 10 000 nM BRD2(2) [7] | % Ctrl @ 10 000 nM ATAD2B [8] | % Ctrl @ 10 000 nM CECR2 [9] | Kd [10] | Kd [11] | Kd [12] | Kd [13] | Kd [14] | Kd [15]
1 | COc1ccc(S(=O)(=O)N2CCOCC2)cc1NC(=O)c1[nH]c(C)c2c1CCCCC2=O [Compound 13, N-(2-methoxy-5-(morpholinosulfonyl)phenyl)-3-methyl-4-oxo-2,4,5,6,7,8-hexahydrocyclohepta[c]pyrrole-1-carboxamide] | 0 % Ctrl | 0.65 % Ctrl | 0 % Ctrl | 0 % Ctrl | 0.17 µM | 75 % Ctrl | 0.1 % Ctrl | 97 % Ctrl | 1.3 % Ctrl | – | – | – | – | – | –
2 | Cc1[nH]c(-c2cc(N)ccc2Cl)c2c1C(=O)CCCC2 [Compound 23] | – | – | – | – | – | – | – | – | – | 4.1 µM | 0.42 µM | 6.8 µM | > 10 µM | 5.3 µM | 3.8 µM
